Assay results taken from patent publication US12447153B2, “HER2 mutation inhibitors” (Array BioPharma Inc., priority 2021, dated 2025).

How the values were obtained:
[1] = target: EGFR wild type (EGFR WT) (Homo sapiens (Human), UniProt P00533); test: Cellular Phosphorylation Assay, Assay 5 (EGF-stimulated EGFR phosphorylation, NIH 3T3 cells); assay type: cell-based
Experimental: (§1) NIH 3T3 cells were engineered to express ErbB2 with Exon 20 YVMA insertion (HER2-YVMA (SEQ ID NO: 2); Assay 4) or EGFR wild type (EGFR WT; Assay 5) with constructs obtained from GenScript and grown in DMEM supplemented with 10% fetal bovine serum and 15 μg/ml blasticidin. […] Serially diluted compounds were added to the plates for 1 hour at 37° C./5% CO2. EGFR WT cells were stimulated with 100 ng/ml rEGF for an additional 10 minutes at 37° C./5% CO2.
(§2) After compound incubation, medium was removed from the cells, which were then fixed in 3.7% formaldehyde in PBS at room temperature for 20 minutes. Following a wash with PBS, cells were permeabilized with 100% methanol at room temperature for 10 minutes. Cells were then washed with PBS/0.05% Tween-20 and blocked with Odyssey blocking buffer (LI-COR Biosciences) for at least 1 hour at room temperature. Antibodies to phosphorylated ErbB2 (Y1196, Cell Signaling #6942) or phosphorylated EGFR (Y1068, Cell Signaling #3777) and GAPDH (Millipore #MAB374) were added to the cells in blocking buffer containing 0.05% azide and incubated overnight at 4° C. After washing with PBS/0.05% Tween-20, the cells were incubated with fluorescently labeled secondary anti-rabbit antibody (LiCOR, IRDye 800CW #926-32211) and anti-mouse antibody (Molecular Probes, Alexa Fluor 680 #A21058) for 1 hour at room temperature in the dark. Cells were then washed and analyzed for fluorescence at both wavelengths using the Odyssey Infrared Imaging System (LI-COR Biosciences). Phosphorylated ErbB2 and EGFR signal was normalized to GAPDH signal to generate curves and calculate IC50 values.

[2] = target: ErbB2 with Exon 20 YVMA insertion (HER2-YVMA) (Homo sapiens (Human), UniProt P04626, INS775YVMA); test: Cellular Phosphorylation Assay, Assay 4 (constitutive ErbB2 phosphorylation, NIH 3T3 cells); assay type: cell-based
Chain of ErbB2 with Exon 20 YVMA insertion (HER2-YVMA) (P04626 other isoform, or with tags, fused parts or gaps ins YVMA behind 775): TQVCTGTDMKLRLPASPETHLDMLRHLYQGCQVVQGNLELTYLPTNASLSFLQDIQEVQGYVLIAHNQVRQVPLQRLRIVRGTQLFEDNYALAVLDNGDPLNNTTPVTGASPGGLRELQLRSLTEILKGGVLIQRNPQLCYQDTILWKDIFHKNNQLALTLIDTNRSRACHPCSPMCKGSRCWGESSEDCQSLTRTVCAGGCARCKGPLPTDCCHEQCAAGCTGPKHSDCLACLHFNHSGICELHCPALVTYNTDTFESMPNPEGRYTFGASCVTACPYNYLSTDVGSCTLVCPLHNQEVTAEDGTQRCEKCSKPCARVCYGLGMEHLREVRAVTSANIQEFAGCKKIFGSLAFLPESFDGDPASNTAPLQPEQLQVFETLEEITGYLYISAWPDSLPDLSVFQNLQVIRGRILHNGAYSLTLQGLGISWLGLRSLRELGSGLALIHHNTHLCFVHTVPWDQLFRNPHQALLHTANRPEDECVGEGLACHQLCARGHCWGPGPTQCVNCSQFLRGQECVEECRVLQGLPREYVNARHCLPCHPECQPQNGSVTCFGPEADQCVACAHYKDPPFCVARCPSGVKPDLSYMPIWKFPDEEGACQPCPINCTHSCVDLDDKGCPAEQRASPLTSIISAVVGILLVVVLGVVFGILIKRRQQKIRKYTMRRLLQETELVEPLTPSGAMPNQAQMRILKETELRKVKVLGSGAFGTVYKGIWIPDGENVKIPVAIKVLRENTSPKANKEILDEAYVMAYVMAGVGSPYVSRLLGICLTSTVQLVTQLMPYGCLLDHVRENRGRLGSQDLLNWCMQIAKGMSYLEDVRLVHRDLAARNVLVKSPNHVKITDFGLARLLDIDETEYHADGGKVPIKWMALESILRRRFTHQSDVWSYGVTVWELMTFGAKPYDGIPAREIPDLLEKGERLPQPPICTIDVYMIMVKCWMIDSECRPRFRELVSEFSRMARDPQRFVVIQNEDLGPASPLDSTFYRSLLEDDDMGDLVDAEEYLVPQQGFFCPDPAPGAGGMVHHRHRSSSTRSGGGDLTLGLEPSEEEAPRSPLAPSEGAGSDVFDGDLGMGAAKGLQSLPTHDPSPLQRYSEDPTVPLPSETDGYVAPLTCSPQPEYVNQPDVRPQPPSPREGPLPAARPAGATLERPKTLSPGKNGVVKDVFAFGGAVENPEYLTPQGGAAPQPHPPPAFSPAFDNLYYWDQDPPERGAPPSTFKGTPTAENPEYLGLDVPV
Experimental: as §1, §2

[3] = target: ErbB2 WT (Homo sapiens (Human), UniProt P04626); test: ErbB Enzyme Assay (HTRF KinEASE-TK), Assay 2; assay type: biochemical
Chain of ErbB2 WT (P04626 23-1255): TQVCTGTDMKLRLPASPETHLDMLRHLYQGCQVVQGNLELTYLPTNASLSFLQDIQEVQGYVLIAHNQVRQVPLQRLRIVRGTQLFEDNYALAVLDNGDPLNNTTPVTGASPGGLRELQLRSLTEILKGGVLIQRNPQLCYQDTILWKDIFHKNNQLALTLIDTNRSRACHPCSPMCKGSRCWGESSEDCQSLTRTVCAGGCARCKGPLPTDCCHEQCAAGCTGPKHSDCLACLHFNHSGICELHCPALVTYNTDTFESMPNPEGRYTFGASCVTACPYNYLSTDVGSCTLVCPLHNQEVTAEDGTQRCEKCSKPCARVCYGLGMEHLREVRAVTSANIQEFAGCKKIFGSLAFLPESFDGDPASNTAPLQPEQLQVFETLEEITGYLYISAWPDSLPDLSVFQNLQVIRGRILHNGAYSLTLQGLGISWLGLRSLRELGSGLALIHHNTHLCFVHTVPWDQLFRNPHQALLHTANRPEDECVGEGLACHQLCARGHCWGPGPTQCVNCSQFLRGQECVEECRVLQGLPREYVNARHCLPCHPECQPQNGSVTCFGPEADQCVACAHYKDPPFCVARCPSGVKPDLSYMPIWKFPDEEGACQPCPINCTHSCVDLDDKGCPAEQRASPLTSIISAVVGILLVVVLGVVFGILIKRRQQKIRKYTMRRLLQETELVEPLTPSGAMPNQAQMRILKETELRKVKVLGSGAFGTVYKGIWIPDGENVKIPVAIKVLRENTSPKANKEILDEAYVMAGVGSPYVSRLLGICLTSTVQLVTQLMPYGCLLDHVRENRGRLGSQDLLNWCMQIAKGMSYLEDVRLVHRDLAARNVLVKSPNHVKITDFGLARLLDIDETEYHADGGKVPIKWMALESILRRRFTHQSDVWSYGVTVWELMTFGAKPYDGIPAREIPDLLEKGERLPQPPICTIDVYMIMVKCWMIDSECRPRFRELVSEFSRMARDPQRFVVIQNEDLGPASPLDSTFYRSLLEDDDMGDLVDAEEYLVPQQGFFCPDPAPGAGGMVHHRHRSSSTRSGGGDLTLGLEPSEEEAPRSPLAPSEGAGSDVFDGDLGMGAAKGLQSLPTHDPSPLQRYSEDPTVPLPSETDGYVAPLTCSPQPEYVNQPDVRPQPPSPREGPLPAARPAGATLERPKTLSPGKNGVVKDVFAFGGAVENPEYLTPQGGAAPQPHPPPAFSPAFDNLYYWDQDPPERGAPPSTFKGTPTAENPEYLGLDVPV
Experimental: (§3) The kinases were incubated with 250 nM TK-substrate biotin (CisBio, part of cat #62TKOPEC) at 1 mM ATP along with test compounds in a buffer consisting of 25 mM HEPES, pH 7.4, 10 mM MgCl2, 0.01% Triton X-100, and 2% DMSO in a volume of 8 μL. […] After 30-minute incubation at 22° C., the reaction was quenched by adding 8 μL of quench solution containing 62.5 nM Sa-XL665 and 0.25×TK-Ab-Cryptate in HTRF detection buffer (all from CisBio, part of cat #62TKOPEC).

[4] = target: EGFR (Homo sapiens (Human), UniProt P00533); test: ErbB Enzyme Assay (HTRF KinEASE-TK), Assay 3; assay type: biochemical
Chain of EGFR (P00533 25-1210): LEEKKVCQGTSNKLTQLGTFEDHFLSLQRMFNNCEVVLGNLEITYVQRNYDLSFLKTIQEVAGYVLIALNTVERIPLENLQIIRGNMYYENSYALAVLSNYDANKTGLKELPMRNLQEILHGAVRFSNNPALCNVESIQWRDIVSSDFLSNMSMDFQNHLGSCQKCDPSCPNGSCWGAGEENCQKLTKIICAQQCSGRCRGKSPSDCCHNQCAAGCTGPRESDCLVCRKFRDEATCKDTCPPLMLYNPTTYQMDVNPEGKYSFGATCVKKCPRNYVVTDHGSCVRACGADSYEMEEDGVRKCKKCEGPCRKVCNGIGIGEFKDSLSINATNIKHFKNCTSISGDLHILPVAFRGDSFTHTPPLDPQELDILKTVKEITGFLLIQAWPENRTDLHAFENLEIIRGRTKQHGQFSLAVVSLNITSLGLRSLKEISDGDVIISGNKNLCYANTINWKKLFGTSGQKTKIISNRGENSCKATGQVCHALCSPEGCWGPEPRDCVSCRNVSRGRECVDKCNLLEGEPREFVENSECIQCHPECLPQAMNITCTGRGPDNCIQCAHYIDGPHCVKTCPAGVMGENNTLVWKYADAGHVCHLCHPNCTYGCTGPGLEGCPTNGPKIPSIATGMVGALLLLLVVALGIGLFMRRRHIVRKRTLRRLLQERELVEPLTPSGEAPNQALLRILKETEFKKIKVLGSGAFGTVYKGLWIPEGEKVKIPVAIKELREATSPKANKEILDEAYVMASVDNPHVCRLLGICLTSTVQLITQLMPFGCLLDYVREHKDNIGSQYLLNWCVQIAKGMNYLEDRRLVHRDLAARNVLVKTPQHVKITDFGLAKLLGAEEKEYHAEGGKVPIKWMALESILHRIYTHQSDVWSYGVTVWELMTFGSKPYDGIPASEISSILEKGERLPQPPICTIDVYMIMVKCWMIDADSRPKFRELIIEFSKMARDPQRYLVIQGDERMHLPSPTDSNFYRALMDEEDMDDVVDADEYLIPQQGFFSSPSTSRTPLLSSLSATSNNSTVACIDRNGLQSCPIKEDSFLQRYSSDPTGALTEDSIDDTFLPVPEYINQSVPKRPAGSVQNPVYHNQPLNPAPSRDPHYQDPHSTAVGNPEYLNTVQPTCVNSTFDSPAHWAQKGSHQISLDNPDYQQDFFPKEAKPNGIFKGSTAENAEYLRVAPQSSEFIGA
Experimental: as §3, with “#62TKOPEC). […] A 4-parameter logistic curve was fit to the POC values as a function of the concentration of compound, and the IC50 value was the point where the best-fit curve crossed 50 POC.” for “#62TKOPEC).”

[5] = cellular EGFR WT phosphorylation, EGF-stimulated
[6] = cellular ErbB2 YVMA phosphorylation
[7] = EGF-stimulated EGFR WT phosphorylation

Chain of EGFR wild type (EGFR WT) (P00533 25-1210): as above

IC50 [1, 5]	IC50 [2, 6]	IC50 ([3]; ErbB2 WT enzyme assay)	IC50 ([4]; EGFR enzyme assay)	IC50 [1, 7]	IC50 ([2]; ErbB2 YVMA phosphorylation)	IC50 ([3]; ErbB2 WT enzyme)	IC50 ([4]; EGFR enzyme)	SMILES
1440 nM	36.1 nM	58.5 nM	881 nM					C=CC(=O)N1C[C@H](c2ccc3ncnc(Nc4ccc(Oc5ccn6ncnc6c5)c(C)c4F)c3n2)CC1(C)C (racemic) [Example 296]
239 nM	12.8 nM	11.4 nM	168 nM					C=CC(=O)N1CCN(c2ccc3ncnc(Nc4ccc(Oc5ccn6ncnc6c5)c(C)c4F)c3n2)C[C@@H]1C(F)F (racemic) [Example 297]
66.2 nM	4.1 nM	1.2 nM	29.4 nM					C=CC(=O)N1CCN(c2ccc3ncnc(Nc4ccc(Oc5ccn6ncnc6c5)c(Cl)c4F)c3n2)C[C@@H]1C(F)F (racemic) [Example 299]
2550 nM	51.1 nM	94.8 nM	2250 nM					CCC(=O)N1CC([C@H](C)c2ccc3ncnc(Nc4ccc(Oc5ccn6ncnc6c5)c(C)c4F)c3n2)C1 (racemic) [Example 301]
≥ 5000 nM	66.1 nM	127 nM	7970 nM					C=CC(=O)N1CCN(c2ccc3ncnc(Nc4ccc(Oc5ccn6ncnc6c5)c(C)c4F)c3n2)C[C@@H]1C1CCC1 (racemic) [Example 305]
≥ 5000 nM	124 nM	59.4 nM	5550 nM					C=CC(=O)N1CC[C@H](c2ccc3ncnc(Nc4ccc(Oc5ccn6ncnc6c5)c(C)c4F)c3n2)CC1(C)C (racemic) [Example 314]
				270 nM	7.9 nM	23.8 nM	736 nM	C=CC(=O)N1CC[C@H](c2ccc3ncnc(Nc4ccc(Oc5ccn6ncnc6c5)c(C)c4F)c3n2)CC12CC2 (single isomer, unassigned) [Example 174]
				503 nM	20.1 nM	16.4 nM	872 nM	C=CC(=O)N1CCC[C@@H](c2ccc3ncnc(Nc4ccc(Oc5ccn6ncnc6c5)c(C)c4F)c3n2)CC1 (single isomer, unassigned) [Example 209]
				≥ 5000 nM	67.7 nM	10.7 nM	1610 nM	C=CC(=O)N1CCC[C@@H](c2ccc3ncnc(Nc4ccc(Oc5ccn6ncnc6c5)c(C)c4F)c3n2)CC1 (single isomer, unassigned) [Example 210]
				≥ 5000 nM	317 nM	65.4 nM	5400 nM	CC#CC(=O)N1CCC[C@@H](c2ccc3ncnc(Nc4ccc(Oc5ccn6ncnc6c5)c(C)c4F)c3n2)CC1 (single isomer, unassigned) [Example 211]
				≥ 5000 nM	386 nM	66.2 nM	3380 nM	CC#CC(=O)N1CCC[C@@H](c2ccc3ncnc(Nc4ccc(Oc5ccn6ncnc6c5)c(C)c4F)c3n2)CC1 (single isomer, unassigned) [Example 212]
				≥ 5000 nM	91.3 nM	58 nM	2290 nM	C=CC(=O)N1CC[C@@H]2C[C@@H](c3ccc4ncnc(Nc5cc(C)c(Oc6ccn7ncnc7c6)cc5F)c4n3)C[C@@H]21 (single isomer, unassigned) [Example 224]
				875 nM	33 nM	37.3 nM	960 nM	C=CC(=O)N1C[C@H]2CC[C@@H]1C[C@@H]2c1ccc2ncnc(Nc3ccc(Oc4ccn5ncnc5c4)c(C)c3F)c2n1 (single isomer, unassigned) [Example 234]
				≥ 5000 nM	92.1 nM	31 nM	1020 nM	C=CC(=O)N1C[C@@H]2CC[C@H]1C[C@H]2c1ccc2ncnc(Nc3ccc(Oc4ccn5ncnc5c4)c(C)c3F)c2n1 (single isomer, unassigned) [Example 235]

The remaining lines, values behind:

SMILES	IC50 [1, 5]	IC50 [2, 6]	IC50 ([3]; ErbB2 WT enzyme assay)	IC50 ([4]; EGFR enzyme assay)	IC50 [1, 7]	IC50 ([2]; ErbB2 YVMA phosphorylation)	IC50 ([3]; ErbB2 WT enzyme)	IC50 ([4]; EGFR enzyme)
C=CC(=O)N1CC[C@H](c2ccc3ncnc(Nc4ccc(Oc5cc(F)c6c(c5)ncn6C)c(C)c4)c3n2)CC1(C)C (racemic) [Example 279]	≥ 5000 nM	62.1 nM	145 nM	≥ 10000 nM				
C=CC(=O)N1CCN(c2ccc3ncnc(Nc4cc(C)c(Oc5ccn6ncnc6c5)cc4F)c3n2)C[C@@H]1C(F)F (racemic) [Example 312]	312 nM	13.4 nM	23.8 nM	892 nM				
C=CC(=O)N1[C@@H](C)CC(c2ccc3ncnc(Nc4ccc(Oc5ccc6c(c5)ncn6C)c(C)c4F)c3n2)C[C@@H]1C (mixture of isomers) [Example 313]	≥ 5000 nM	51.9 nM	79.7 nM	≥ 10000 nM				
C=CC(=O)N1CCCC[C@@H](c2ccc3ncnc(Nc4ccc(Oc5ccc6c(c5)ncn6C)c(C)c4)c3n2)C1 (single isomer, unassigned) [Example 171]					≥ 5000 nM	26.3 nM	13.4 nM	≥ 10000 nM
C=CC(=O)N1CCCC[C@H](c2ccc3ncnc(Nc4ccc(Oc5ccc6c(c5)ncn6C)c(C)c4)c3n2)C1 (single isomer, unassigned) [Example 172]					1960 nM	13.9 nM	5.2 nM	720 nM
C=CC(=O)N1[C@@H]2CC[C@H]1[C@H](c1ccc3ncnc(Nc4ccc(Oc5ccn6ncnc6c5)c(C)c4)c3n1)C2 (single isomer, unassigned) [Example 233]					≥ 5000 nM	83.8 nM	121 nM	4880 nM
C=CC(=O)N1CCC(Oc2ccc3ncnc(Nc4cc(Cl)c(Oc5ccc6cn(C)nc6c5)cc4Cl)c3n2)CC1 [Example 2, 1-(4-((4-((2,5-dichloro-4-((2-methyl-2H-indazol-6-yl)oxy)phenyl)amino)pyrido[3,2-d]pyrimidin-6-yl)oxy)piperidin-1-yl)prop-2-en-1-one]					≥ 5000 nM	1140 nM	1290 nM	≥ 10000 nM
C=CC(=O)N1CCC(Oc2ccc3ncnc(Nc4cc(Cl)c(Oc5ccc6cn(C)nc6c5)cc4F)c3n2)CC1 [Example 4, 1-(4-((4-((5-chloro-2-fluoro-4-((2-methyl-2H-indazol-6-yl)oxy)phenyl)amino)pyrido[3,2-d]pyrimidin-6-yl)oxy)piperidin-1-yl)prop-2-en-1-one]					≥ 5000 nM	392 nM	876 nM	≥ 10000 nM
C=CC(=O)N1CCC(Oc2ccc3ncnc(Nc4cc(C)c(Oc5ccc6cn(C)nc6c5)cc4F)c3n2)CC1 [Example 5, 1-(4-((4-((2-fluoro-5-methyl-4-((2-methyl-2H-indazol-6-yl)oxy)phenyl)amino)pyrido[3,2-d]pyrimidin-6-yl)oxy)piperidin-1-yl)prop-2-en-1-one]					≥ 5000 nM	407 nM	2340 nM	≥ 10000 nM
C=CC(=O)N1CCC(Oc2ccc3ncnc(Nc4ccc(Oc5cnn6ccnc6c5)c(C)c4)c3n2)CC1 [Example 8, 1-(4-((4-((4-(imidazo[1,2-b]pyridazin-7-yloxy)-3-methylphenyl)amino)pyrido[3,2-d]pyrimidin-6-yl)oxy)piperidin-1-yl)prop-2-en-1-one]					799 nM	47.3 nM	76.5 nM	1350 nM
C=CC(=O)N1CCC(Oc2ccc3ncnc(Nc4ccc(Oc5ccc6cn(C)nc6c5)c(F)c4)c3n2)CC1 [Example 12, 1-(4-((4-((3-fluoro-4-((2-methyl-2H-indazol-6-yl)oxy)phenyl)amino)pyrido[3,2-d]pyrimidin-6-yl)oxy)piperidin-1-yl)prop-2-en-1-one]					≥ 5000 nM	193 nM	1030 nM	≥ 10000 nM
